The target of the assay is T1, H+,K+-ATPase (Sus scrofa, UniProt P19156).
T1 construct: The obtained microsomal fraction was used as a proton, potassium—adenosine triphosphatase standard product; from tissue; host or cells: swine stomach, gastric mucous membrane microsomal fraction
Nature of the assay: Proton potassium-adenosine triphosphatase (H+,K+-ATPase) inhibitory activity test. Type of assay: biochemical. To be noted: gastric mucous membrane microsomal fraction from swine stomach; pH 6.5, 37° C., malachite green colorimetry at 610 nm; read-out: IC50 (50% inhibitory concentration of proton, potassium-adenosine triphosphatase). As to the method:
Proton Potassium—Adenosine Triphosphatase (H^+,K^+-ATPase) Inhibitory Activity Test
According to the method [Biochim. Biophys. Acta, 728, 31 (1983)] of Wallmark et al., a gastric mucous membrane microsomal fraction was prepared from the stomach of swine. First, the stomach was removed, washed with tap water, immersed in 3 mol/L brine, and the surface of the mucous membrane was wiped with a paper towel. The gastric mucous membrane was detached, chopped, and homogenized in a 0.25 mol/L saccharose solution (pH 6.8) containing 1 mmol/L EDTA and 10 mmol/L tris-hydrochloric acid using polytron (Kinematica). The obtained homogenate was centrifuged at 20,000×g for 30 min and the supernatant was centrifuged at 100,000×g for 90 min. The precipitate was suspended in 0.25 mol/L saccharose solution, superimposed on a 0.25 mol/L saccharose solution containing 7.5% Ficoll, and centrifuged at 100,000×g for 5 hr. The fraction containing the interface between the both layers was recovered, and centrifugally washed with 0.25 mol/L saccharose solution.
The obtained microsomal fraction was used as a proton, potassium—adenosine triphosphatase standard product.
To 40 μL of a 50 mmol/L HEPES-tris buffer (5 mmol/L magnesium chloride, 10 mmol/L potassium chloride, 10 μmol/L valinomycin, pH=6.5) containing 2.5 μg/mL (based on the protein concentration) of the enzyme standard product was added a test compound (5 μL) dissolved in a 10% aqueous dimethyl sulfoxide solution, and the mixture was incubated at 37° C. for 30 min. The enzyme reaction was started by adding 5 μL of a 2 mmol/L adenosine triphosphate tris salt solution (50 mmol/L HEPES-tris buffer (5 mmol/L magnesium chloride, pH 6.5)). The enzyme reaction was performed at 37° C. for 20 min, and 15 μL of a malachite green solution (0.12% malachite green solution in sulfuric acid (2.5 mol/L), 7.5% ammonium molybdate and 11% Tween 20 were mixed at a ratio of 100:25:2) was added to quench the reaction. After allowing to stand at room temperature for 15 min, the resulting reaction product of inorganic phosphorus with malachite green was colorimetrically determined at a wavelength of 610 nm. In addition, the amount of the inorganic phosphoric acid in the reaction solution free of potassium chloride was measured in the same manner, which was subtracted from the inorganic phosphoric acid amount in the presence of potassium chloride to determine the proton, potassium—adenosine triphosphatase activity. The inhibitory rate (%) was determined from the activity value of the control activity value and the activity values of various concentrations of the test compound, and the 50% inhibitory concentration (IC50) of the proton, potassium-adenosine triphosphatase was determined.

Structures are written as SMILES. Counter-ions that a name gives are not always drawn.

T1 sequence (P19156 2-1034 limits assumed): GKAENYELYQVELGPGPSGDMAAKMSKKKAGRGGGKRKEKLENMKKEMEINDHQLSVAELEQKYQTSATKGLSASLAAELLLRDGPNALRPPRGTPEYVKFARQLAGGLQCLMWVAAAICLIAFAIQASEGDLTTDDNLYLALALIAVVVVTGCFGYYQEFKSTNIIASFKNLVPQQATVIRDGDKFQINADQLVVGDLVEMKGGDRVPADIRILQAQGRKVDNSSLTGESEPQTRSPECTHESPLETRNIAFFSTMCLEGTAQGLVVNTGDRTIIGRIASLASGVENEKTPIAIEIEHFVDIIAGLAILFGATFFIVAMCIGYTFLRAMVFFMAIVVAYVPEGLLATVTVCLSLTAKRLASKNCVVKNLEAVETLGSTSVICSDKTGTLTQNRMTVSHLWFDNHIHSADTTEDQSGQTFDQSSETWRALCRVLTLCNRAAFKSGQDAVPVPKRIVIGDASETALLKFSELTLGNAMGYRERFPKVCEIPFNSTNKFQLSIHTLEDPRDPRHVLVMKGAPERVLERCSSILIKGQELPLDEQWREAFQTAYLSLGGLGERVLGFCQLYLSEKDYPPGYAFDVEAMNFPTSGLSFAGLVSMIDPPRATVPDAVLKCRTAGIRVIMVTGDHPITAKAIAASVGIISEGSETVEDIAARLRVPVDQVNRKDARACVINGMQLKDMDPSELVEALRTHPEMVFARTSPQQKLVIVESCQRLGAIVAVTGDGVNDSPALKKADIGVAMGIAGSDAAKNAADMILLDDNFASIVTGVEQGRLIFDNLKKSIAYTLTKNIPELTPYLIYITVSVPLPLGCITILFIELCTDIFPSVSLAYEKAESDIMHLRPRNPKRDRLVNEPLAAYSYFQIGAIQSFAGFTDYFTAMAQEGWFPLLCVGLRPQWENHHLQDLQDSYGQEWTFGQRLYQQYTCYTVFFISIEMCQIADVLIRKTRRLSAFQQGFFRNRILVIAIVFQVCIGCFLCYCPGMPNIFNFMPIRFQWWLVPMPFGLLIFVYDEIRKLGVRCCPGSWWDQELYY
T1 sequence (P18434 whole entry partner): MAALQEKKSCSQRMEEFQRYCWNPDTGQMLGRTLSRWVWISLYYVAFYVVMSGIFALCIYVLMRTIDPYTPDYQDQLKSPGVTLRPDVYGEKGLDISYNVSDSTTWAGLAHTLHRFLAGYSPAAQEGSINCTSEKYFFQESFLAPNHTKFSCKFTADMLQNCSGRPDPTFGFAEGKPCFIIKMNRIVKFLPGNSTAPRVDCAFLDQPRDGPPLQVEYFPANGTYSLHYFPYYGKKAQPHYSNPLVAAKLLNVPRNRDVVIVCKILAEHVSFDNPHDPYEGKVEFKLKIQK

On to `CNCc1cn(-c2ccccc2)c(S(=O)(=O)c2ccccc2)c1C` [Example 1, N-methyl-1-[4-methyl-1-phenyl-5-(phenylsulfonyl)-1H-pyrrol-3-yl]methanamine hydrochloride], for which the IC50 stood at 180 nM. For `Cc1ccc(S(=O)(=O)n2cc(CN(C)C)nc2-c2ccccc2)cc1` [Example 5, N,N-dimethyl-1-{1-[(4-methylphenyl)sulfonyl]-2-phenyl-1H-imidazol-4-yl}methanamine 0.5 oxalate], the IC50 worked out at 160 nM. Regarding `CNCc1cn(S(=O)(=O)c2cccc(OC)c2)c(-c2ccccc2)n1` [Example 7, 1-{1-[(3-methoxyphenyl)sulfonyl]-2-phenyl-1H-imidazol-4-yl}-N-methylmethanamine fumarate], the IC50 came out at 30 nM. For the compound `CNCc1nc(-c2ccccc2)c(S(=O)(=O)c2ccccc2)s1` [Example 12, N-methyl-1-[4-phenyl-5-(phenylsulfonyl)-1,3-thiazol-2-yl]methanamine hydrochloride], the IC50 was found to be 170 nM.

These data come from US8686010B2, “Aryl- or heteroaryl-sulfonyl compounds as acid secretion inhibitors” (Takeda Pharmaceutical Company Limited, priority 2006, dated 2014).
